SMILES strings stand for the structures.

In this experiment the target is 5-hydroxytryptamine receptor 6 (Homo sapiens, UniProt P50406). Kind of experiment: Displacement of [3H]LSD from human 5HT6 receptor expressed in HEK293 cells. It is filed as cell-based.
5-hydroxytryptamine receptor 6, sequence (P50406 whole entry): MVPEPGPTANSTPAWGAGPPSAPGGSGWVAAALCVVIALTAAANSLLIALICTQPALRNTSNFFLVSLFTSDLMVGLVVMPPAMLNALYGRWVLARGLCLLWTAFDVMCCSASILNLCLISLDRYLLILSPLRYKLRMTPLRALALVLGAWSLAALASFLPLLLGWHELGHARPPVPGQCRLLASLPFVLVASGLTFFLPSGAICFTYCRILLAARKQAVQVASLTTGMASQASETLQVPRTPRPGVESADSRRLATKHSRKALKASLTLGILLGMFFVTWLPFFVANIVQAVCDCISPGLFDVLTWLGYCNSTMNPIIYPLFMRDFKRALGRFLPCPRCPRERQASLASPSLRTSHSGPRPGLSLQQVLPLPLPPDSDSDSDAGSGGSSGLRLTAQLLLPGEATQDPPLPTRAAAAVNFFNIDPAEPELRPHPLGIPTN
Regarding `CN(C)[C@H]1CCc2c(cccc2NS(=O)(=O)c2ccccc2)C1`, the Ki amounted to 90 nM.
Consider `CN(C)CCc1cn(Sc2ccccc2)c2ccccc12`, for which the affinity corresponds to a Ki of 90 nM.
As for `CCc1[nH]c2ccc(OC)cc2c1C[C@H]1CCCN1C`, the Ki worked out at 1.8 nM.
Take `CCc1[nH]c2ccc(OC)cc2c1C[C@@H]1CCCN1C`: the Ki is 220 nM.
The same measure for `CN(C)[C@@H]1CCc2c(cccc2NS(=O)(=O)c2ccccc2)C1`: 49 nM.

Values taken from ChEMBL document CHEMBL1140744, “Binding of serotonin and N1-benzenesulfonyltryptamine-related analogs at human 5-HT6 serotonin receptors: receptor modeling studies” (J Med Chem, 2008).
